Assay results from patent US20100062997A1, “USE OF IDRAPARINUX FOR EXTENDED PROPHYLAXIS OF THROMBOEMBOLISM” (SANOFI-AVENTIS, priority 2008, published 2010).

Tests used:
[1] = tested on: patients with confirmed, symptomatic DVT or PE treated for 6 months with a VKA or idraparinux; assay: Same study, principal safety outcome: major bleeding; assay type: in vivo
Procedure: (§1) A double-blind, placebo-controlled study evaluated patients who had completed 6 months of initial treatment for deep venous thrombosis (hereafter “DVT”) or pulmonary embolism (hereafter “PE”) and who were then randomly assigned to receive an additional 6 months of prophylaxis with idraparinux. The efficacy of this method of thromboprophylaxis was evaluated in these patients.
(§2) Patients received a once-weekly subcutaneous dose of 2.5 mg of idraparinux or placebo with an identical appearance for 6 months (26 injections). In patients who had received idraparinux before randomization, the first dose of idraparinux or placebo was given 6 to 8 days after the last injection of the drug. In patients who had received a VKA before randomization, the first dose was given when the international normalized ratio (INR) was 3.0 or less. For patients with a creatinine clearance of less than 30 ml/min., the weekly idraparinux dose was 1.5 mg, with a first dose of 2.5 mg in patients who had received a VKA before randomization.
The principal safety outcome was major bleeding. […]
Analysis of the primary safety outcome, the incidence of major bleeding at 6 months, was performed with the use of the Mantel-Haenszel test, stratified according to the previous treatment. The effect of initial, prerandomization treatment on efficacy and safety was also analyzed. […]

[2] = tested on: patients with confirmed, symptomatic DVT or PE treated for 6 months with a VKA or idraparinux; assay: Double-blind, placebo-controlled study of 6 months extended thromboprophylaxis: symptomatic recurrent VTE; assay type: in vivo
Procedure: as §1
Eligible patients were those aged above or equal to 18 years, with confirmed, symptomatic DVT or PE and who had been treated for 6 months with a VKA (acenocoumarol or warfarin), either in previous van Gogh studies (see The van Gogh Investigators, N. Engl. J. Med., 2007, 357, 1094-104) or outside these studies, or with idraparinux (in van Gogh studies).
The diagnostic criteria for DVT were a calf trifurcation or a more proximal vein that were noncompressible on ultrasonography or an intraluminal filling defect on venography. For PE, the diagnostic criteria were an intraluminal filling defect in subsegmental or more proximal pulmonary arteries on spiral computed tomography (CT) or conventional pulmonary angiography, a high-probability finding on a ventilation-perfusion lung scan, or a nondiagnostic finding on a lung scan with objectively documented DVT (H. R. Büller et al., Ann. Intern. Med., 2004, 140, 867-73; The Matisse Investigators, N. Engl. J. Med., 2003, 349, 1695-702).
Patients were ineligible if they met one or more of the following criteria: an indication to continue anticoagulant therapy for the index DVT or PE beyond 6 months, other indications for prophylaxis with a VKA, pregnancy or breast-feeding, a creatinine clearance of less than 10 ml per minute, severe hepatic disease, bacterial endocarditis, active bleeding or a high risk of bleeding, uncontrolled hypertension (systolic blood pressure above 180 mm Hg or diastolic blood pressure above 110 mm Hg), or a life expectancy of less than 3 months.
Patients were randomized, with stratification according to study center and to the anticoagulant treatment received in the 6 months before randomization (idraparinux within the van Gogh studies or VKA within or outside the van Gogh studies). Randomization was to be performed not more than 1 hour before the administration of the first dose of the study drug.
as §2
All patients were contacted after 1 week and at 3 and 6 months. […] At each contact, symptoms and signs of recurrent VTE were investigated.
All suspected outcome events were reviewed and classified by a central adjudication committee, whose members were unaware of study-group assignment.
The primary efficacy outcome was the incidence of symptomatic recurrence of VTE, defined as objectively documented recurrent PE, DVT or death attributed to PE. A diagnosis of recurrent VTE was accepted in the absence of an adequate objective test result if the investigator had treated the patient with therapeutic doses of heparin for more than 2 days or with a vena cava filter, thrombectomy or thrombolysis, or if recurrent VTE could not be ruled out. […]

[3] = idraparinux group, month 6 after randomization, counted in most severe category

With CO[C@H]1O[C@H](COS(=O)(=O)O)[C@@H](O[C@@H]2O[C@@H](C(=O)O)[C@@H](O[C@H]3O[C@H](COS(=O)(=O)O)[C@@H](O[C@@H]4O[C@H](C(=O)O)[C@@H](O[C@H]5O[C@H](COS(=O)(=O)O)[C@@H](OC)[C@H](OC)[C@H]5OC)[C@H](OC)[C@H]4OC)[C@H](OS(=O)(=O)O)[C@H]3OS(=O)(=O)O)[C@H](OC)[C@H]2OC)[C@H](OS(=O)(=O)O)[C@H]1OS(=O)(=O)O [Idraparinux, idraparinux] the major hemorrhage ([1]; idraparinux group, 6 months of treatment, placebo 0%, P<0.001) was 1.9%, the “major bleedings after discontinuation” value ([1]; placebo group, patients who first received idraparinux, 6 months) was “without major bleedings” and the “symptomatic, objectively confirmed VTE (frequency of recurrent thromboembolism)” value ([2]; idraparinux group, 6 of 594 patients, during the 6 months of randomly assigned treatment) was 1.0%. The “recurrent VTE” value ([2]; idraparinux group, 7 patients, further 6-month observation period after end of the additional 6 months of thromboprophylaxis, P=0.21 vs placebo) was 1.2%, the “cumulative incidence of recurrent VTE (Kaplan-Meier)” value ([2]; idraparinux group, 1 year after randomization, P=0.002 vs placebo) was 1.7% and the “Type of recurrent event: DVT only” value [2, 3] was 3 number of patients. For the same compound, the “Type of recurrent event: PE fatal” value [2, 3] was 2 number of patients, the “Type of recurrent event: PE non fatal” value [2, 3] was 1 number of patients and the “reduction in the relative risk of recurrent VTE” value ([2]; idraparinux vs placebo, 6 months, 95% CI 33.5 to 88.8, P=0.002) was 72.7%. For the same compound, the “Recurrent VTE, Odds Ratio (95% CI)” value ([2]; idraparinux vs placebo, month 6 after randomization, all patients, adjusted according to treatment history, P 0.002) was 0.27 (0.11-0.66), the “Recurrent VTE, Odds Ratio (95% CI)” value ([2]; idraparinux vs placebo, treatment before randomization: VKA outside study, month 6, P 0.004) was 0.09 (0.01-0.69) and the “Recurrent VTE, Odds Ratio (95% CI)” value ([2]; idraparinux vs placebo, treatment before randomization: VKA within study, month 6, P 0.02) was 0.20 (0.04-0.92). For the same compound, the “Recurrent VTE, Odds Ratio (95% CI)” value ([2]; idraparinux vs placebo, treatment received before randomization: VKA, month 6, P <0.001) was 0.14 (0.04-0.48), the “Recurrent VTE, Odds Ratio (95% CI)” value ([2]; idraparinux vs placebo, treatment received before randomization: idraparinux, month 6, P 0.68) was 1.58 (0.26-9.55) and the “cumulative incidence of recurrent thromboembolism by treatment received before randomization (FIG. 1)” value ([2]; placebo group, entire year after randomization, 268 patients who had received idraparinux in the 6 months before randomization) was “lowest”. The “frequency of recurrence (6-month recurrence rate) after discontinuation” value ([2]; placebo group, substance = treatment received for 6 months before randomization) was “less than 1%”.
